Results on 23 compounds are retold here after US20100113484A1, “TREATING AGENT OF UROPATHY” (ASKA PHARMACEUTICAL CO., LTD., priority 2006, published 2010).

Read-outs that look alike come from different tables or passages of the source. Some results are limits rather than exact numbers.

In test [1] the target is T1, human recombinant PDE9 protein (Homo sapiens, UniProt O76083).
T1 construct: made in house; host or cells: COS-1 cells, transient transfection with pcDNA 3.1 (+); supernatant of the homogenate, not purified
T1 sequence (O76083 whole entry): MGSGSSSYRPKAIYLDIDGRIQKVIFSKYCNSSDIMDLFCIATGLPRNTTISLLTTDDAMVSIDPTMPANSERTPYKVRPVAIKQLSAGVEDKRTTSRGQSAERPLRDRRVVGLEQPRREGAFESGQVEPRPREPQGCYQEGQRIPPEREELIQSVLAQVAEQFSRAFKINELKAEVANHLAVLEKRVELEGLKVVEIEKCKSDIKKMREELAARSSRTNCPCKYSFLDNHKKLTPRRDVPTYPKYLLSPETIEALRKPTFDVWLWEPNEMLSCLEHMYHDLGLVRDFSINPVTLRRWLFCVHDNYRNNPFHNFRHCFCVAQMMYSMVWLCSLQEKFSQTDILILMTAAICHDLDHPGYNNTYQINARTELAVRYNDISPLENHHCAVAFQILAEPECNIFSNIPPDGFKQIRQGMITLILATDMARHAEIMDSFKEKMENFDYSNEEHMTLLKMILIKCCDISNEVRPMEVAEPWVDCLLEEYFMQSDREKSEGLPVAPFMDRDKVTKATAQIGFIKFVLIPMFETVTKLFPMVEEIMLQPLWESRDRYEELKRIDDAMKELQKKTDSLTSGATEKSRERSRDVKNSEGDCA
Kind of test: Measurement of PDE9-inhibiting activity ([3H]-cGMP hydrolysis). It counts as biochemical. Here is the method:
Based on the base sequence of hsPDE9A1 registered with GenBank database (accession No.: AF048837), hsPDE9A1 fragment was amplified by polymerase chain reaction under the following conditions, using the following sequence (Amasham Pharmacia Biotech) as the primer and Human Prostate […] cDNA library (CLONTECH) as the template DNA, with Pfu Turbo DNA polymerase ([…]):
PCR condition: [95° C., 5 min]×1 cycle, [(95° C., 1 min), (58° C., 2 min), (72° C., 3 min)]×25 cycles, [72° C., 10 min]×1 cycle
Thus obtained hsPDE9A1 fragment was given a restricted enzymatic treatment with NheI and NotI, and thereafter inserted into pcDNA 3.1 (+) expression vector (Invitrogen) to let it serve as a human PDE9 expression vector.
Human PDE9 expression vector-transformed Escherichia coli was mass incubated to produce a large amount of human PDE9 expression vector, which was transiently transfected into COS-1 cells, with LIPOFECTAMINE 2000 Reagent (GIBCO). The cells were homogenized in ice-cooled buffer A (40 mmol/L Tris-HCl, pH7.5, 15 mmol/L benzamidine, 15 mmol/L 2-mercaptoethanol, 1 μg/mL Pepstatin A, 1 μg/mL Leupeptin, 5 mmol/L EDTA) and centrifuged at 4° C., 14,000×g for 10 minutes. The supernatant was isolated to provide human recombinant PDE9 protein solution.
This mixed solution was incubated at 30° C. for 30 minutes and the enzymatic reaction of PDE9 was terminated by heating the system in boiling water for 90 seconds. Returning the system to room temperature, 50 μL of Snake venom (SIGMA: 1 mg/mL) was added, followed by 10 minutes' incubation at 30° C., to convert the [^3H]-5′-GMP produced in the previous reaction to [^3H]-guanosine. […] Thereafter [^3H]-guanosine was eluted with 3 mL of 3 mol/L aqueous ammonia and its radiation activity was measured with liquid scintillation counter.
PDE9 inhibition of the tested compound can be calculated by the following formula: […]
From the percent inhibition at various concentration levels of each tested compound, its IC50 value against PDE9 can be determined.

Test [2] deals with T2, human recombinant PDE5 protein (Homo sapiens, UniProt O76074).
T2 construct: made in house; host or cells: COS-1 cells, transient transfection with pcDNA 3.1 (+); supernatant of the homogenate, not purified
Kind of test: Measurement of PDE5-inhibiting activity. It counts as biochemical. The protocol:
PCR condition: [94° C., 2 min]×1 cycle, [(94° C., 30 sec), (65° C., 30 sec), (68° C., 3 min)]×25 cycles, [68° C., 6 min]×1 cycle
Thus obtained hsPDE5A1 fragment was given a restricted enzymatic treatment with XBaI and EcoRI, and thereafter inserted into pcDNA 3.1 (+) expression vector (Invitrogen) to let it serve as a human PDE5 expression vector.
Human PDE5 expression vector-transformed Escherichia coli was mass incubated to produce a large amount of human PDE5 expression vector, which was transiently transfected into COS-1 cells, with LIPOFECTAMINE 2000 Reagent (GIBCO). The cells were homogenized in ice-cooled buffer A and centrifuged at 4° C., 14,000×g for 10 minutes. The supernatant was isolated to provide human recombinant PDE5 protein solution.

[3] abbreviates: Tables A and C, read-out: Inhibiting Activity (IC50 value) PDE9.
The mark [4] stands for this setting: Tables A and C, read-out: Inhibiting Activity (IC50 value) PDE5.
Setting [5] is: Table B, read-out: Inhibiting Activity IC50 PDE9.
Setting [6] is: Table B, read-out: Inhibiting Activity IC50 PDE5.

In general, IC50 refers to the concentration at which inhibition is half-maximal. With `Cc1c(C(=O)O)sc2nc(Cc3cccc(Br)c3)[nH]c(=S)c12` [A-25, 2-(3-Bromobenzyl)-5-methyl-4-thioxo-3,4-dihydrothieno-[2,3-d]pyrimidine-6-carboxylic acid], the IC50 is 11 nM in test [1] (setting [3]) and 712 nM in test [2] (setting [4]).
With `Cc1c(C(=O)O)sc2nc(CC3=CCCCC3)[nH]c(=S)c12` [A-30, 2-(Cyclohex-1-enylmethyl)-5-methyl-4-thioxo-3,4-dihydrothieno[2,3-d]pyrimidine-6-carboxylic acid], the figures for the IC50 in test [1] (setting [3]) and in test [2] (setting [4]) were 48 nM and 70 nM, respectively.
Consider `Cc1c(C(=O)O)sc2nc(Cc3ccccc3)[nH]c(=S)c12` [A-24, 2-Benzyl-5-methyl-4-thioxo-3,4-dihydrothieno[2,3-d]-pyrimidine-6-carboxylic acid], for which the IC50 came to 13 nM in test [1] (setting [3]) and 642 nM in test [2] (setting [4]).
On the same counts, the results for `O=C(O)CCc1ncc2c(=O)[nH]c3cc(C(F)(F)F)ccc3n12` [C-8, 3-(4-Oxo-7-trifluoromethyl-4,5-dihydroimidazo[1,5-a]-quinoxalin-1-yl)propionic acid] are 2 nM and 6370 nM.
The corresponding values for `O=C(O)c1cc2c(=O)[nH]c(Cc3cccs3)nc2s1` [A-16, 4-Oxo-2-(thiophen-2-ylmethyl)-3,4-dihydrothieno[2,3-d]-pyrimidine-6-carboxylic acid] are 15 nM and 41200 nM.
The corresponding values for `O=C(O)c1cc2c(=O)[nH]c(Cc3cccc(C(F)(F)F)c3)nc2s1` [A-19, 4-Oxo-2-(3-trifluoromethylbenzyl)-3,4-dihydrothieno-[2,3-d]pyrimidine-6-carboxylic acid] are 15 nM and 30200 nM.
Consider `COc1cc2c(cc1C(=O)N(C)C)[nH]c(=O)c1cnc(C3CCCCC3)n12` [C-3, 1-Cyclohexyl-8-methoxy-N,N-dimethyl-4-oxo-4,5-dihydro-imidazo[1,5-a]quinoxaline-7-carboxamide], for which the IC50 is 1.2 nM in test [1] (setting [3]) and over 10000 nM in test [2] (setting [4]).
Regarding `Cc1c(C(=O)O)sc2nc(Cc3ccsc3)[nH]c(=S)c12` [A-22, 5-Methyl-2-(thiophen-3-ylmethyl)-4-thioxo-3,4-dihydrothieno-[2,3-d]pyrimidine-6-carboxylic acid], the half-maximal inhibitory concentration (IC50) in test [1] (setting [3]) is 9 nM; in test [2] (setting [4]) it was 1640 nM.
`Cc1c(C(=O)O)sc2nc(CC3=CCCCC3)[nH]c(=O)c12` [A-14, 2-(Cyclohex-1-enylmethyl)-5-methyl-4-oxo-3,4-dihydrothieno-[2,3-d]pyrimidine-6-carboxylic acid]: the values for the IC50 in test [1] (setting [3]) and in test [2] (setting [4]) were 54 nM and 1640 nM, respectively.
On the same counts, the results for `O=C(O)c1cc2c(=S)[nH]c(Cc3ccccc3)nc2s1` [A-32, 2-Benzyl-4-thioxo-3,4-dihydrothieno[2,3-d]pyrimidine-6-carboxylic acid] are 11 nM and 8870 nM.
On the same counts, the results for `O=C(O)c1cc2c(=O)[nH]c(Cc3ccc(Cl)c(Cl)c3)nc2s1` [A-20, 2-(3,4-Dichlorobenzyl)-4-oxo-3,4-dihydrothieno[2,3-d]-pyrimidine-6-carboxylic acid] are 9 nM and 2280 nM.
On to `CCOc1cc2c(cc1C(=O)N(C)C)[nH]c(=O)c1cnc(C3CCCCC3)n12` [C-4], for which the IC50 in test [1] (setting [3]) is 3.4 nM; in test [2] (setting [4]), over 10000 nM.
On the same counts, the results for `Cc1c(C(=O)O)sc2nc(Cc3cc(Cl)ccc3F)[nH]c(=O)c12` [A-11, 2-(5-Chloro-2-fluorobenzyl)-5-methyl-4-oxo-3,4-dihydrothieno-[2,3-d]pyrimidine-6-carboxylic acid] are 22 nM and 5710 nM.
As for `Cc1c(C(=O)O)sc2nc(Cc3ccccc3SC(F)(F)F)[nH]c(=O)c12` [A-8, 5-Methyl-4-oxo-2-(2-trifluoromethylthiobenzyl)-3,4-dihydrothieno[2,3-d]pyrimidine-6-carboxylic acid], the half-maximal inhibitory concentration (IC50) in test [1] (setting [3]) was 46 nM; in test [2] (setting [4]) it was 20000 nM.
For the compound `CC(C)c1ncc2c(=O)[nH]c3cc(Cl)ccc3n12` [C-1, 7-Chloro-1-isopropylimidazo[1,5-a]quinoxalin-4 (5H)-one], the IC50 amounted to 10 nM in test [1] (setting [3]) and 1260 nM in test [2] (setting [4]).
The corresponding values for `CN(C)C(=O)c1cc2[nH]c(=O)c3cnc(C4CCCCC4)n3c2cc1Cl` [C-5, 8-Chloro-1-cyclohexyl-N,N-dimethyl-4-oxo-4,5-dihydroimidazo-[1,5-a]quinoxaline-7-carboxamide] are 3 nM and over 10000 nM.
Consider `Cc1c(C(=O)O)sc2nc(Cc3ccc(Cl)c(Cl)c3)[nH]c(=S)c12` [A-28, 2-(3,4-Dichlorobenzyl)-5-methyl-4-thioxo-3,4-dihydrothieno-[2,3-d]pyrimidine-6-carboxylic acid], for which the figures for the half-inhibitory concentration (IC50) in test [1] (setting [3]) and in test [2] (setting [4]) were 4 nM and 73 nM, respectively.
The corresponding values for `Cc1c(C(=O)O)sc2nc(Cc3ccsc3)[nH]c(=O)c12` [A-1, 5-Methyl-4-oxo-2-(thiophen-3-ylmethyl)-3,4-dihydrothieno[2,3-d]-pyrimidine-6-carboxylic acid] are 22 nM and 17800 nM.
Regarding `O=C(O)c1ccc2c(=O)[nH]c(Cc3cccc(Cl)c3)nc2c1` [B-1, 2-(3-Chlorobenzyl)-4-oxo-3,4-dihydroquinazoline-7-carboxylic acid], the half-maximal inhibitory concentration (IC50) was 18 nM in test [1] (setting [5]) and 6210 nM in test [2] (setting [6]).
Turning to `O=C(O)c1cc2c(=O)[nH]c(Cc3ccsc3)nc2s1` [A-15, 4-Oxo-2-(thiophen-3-ylmethyl)-3,4-dihydrothieno-[2,3-d]pyrimidine-6-carboxylic acid], the figures for the IC50 in test [1] (setting [3]) and in test [2] (setting [4]) were 14 nM and 34900 nM, respectively.
`O=C(O)c1ccc2c(=O)[nH]c(Cc3ccc(Cl)c(Cl)c3)nc2c1` [B-2, 2-(3,4-Dichlorobenzyl)-4-oxo-3,4-dihydroquinazoline-7-carboxylic acid]: the IC50 in test [1] (setting [5]) came out at 35 nM; in test [2] (setting [6]), 1440 nM.
Turning to `Cc1c(C(=O)O)sc2nc(Cc3cc(F)ccc3F)[nH]c(=O)c12` [A-12, 2-(2,5-Difluorobenzyl)-5-methyl-4-oxo-3,4-dihydrothieno-[2,3-d]pyrimidine-6-carboxylic acid], the 50% inhibitory concentration (IC50) in test [1] (setting [3]) stood at 42 nM; in test [2] (setting [4]) it was 19800 nM.
On the same counts, the results for “2-(5-Chlorothiophen-2-ylmethyl)-5-methyl-4-oxo-3,4-dihydrothieno[2,3-d]pyrimidine-6-carboxylic acid [A-3]” are 34 nM and 6900 nM.
